The source of these data is US20140039018A1 (priority 2011, published 2014).

Converted amounts (≈) assume the structure as drawn. Where two headings read alike, the source gives them in different places.

Experiment [1] has as its system Fusarium graminearum Fg15 strain. The experiment can be described thus: microbe, parasite or virus in culture. Conditions: FG15STRAIN, read-out: MIC value (minimum inhibition concentration). Format: cell-based.
For experiment [2], the system named is Fusarium graminearum H-3 strain. Format: in vivo, wheat.
For experiment [3] the test system is unchanged. Format: in vivo, barley. Conditions: 18% wettable powder, 2000-fold dilution, 1500 L/ha, once in browning stage.
Experiment [4] deals with Fusarium graminearum Fg15 strain. Format: cell-based. The conditions noted are these: 25° C., 1 week.

Turning to `CC1(C)CCC(Cc2ccc(Cl)cc2)C1(O)Cn1cncn1` (stereo not shown) [metconazole], in experiment [1], the MIC was 1.56 µg/mL (≈ 4.88 µM). The “mycotoxin (DON) in wheat grains versus grain cropped without application” value in experiment [2] (18% wettable powder, 2000-fold dilution, 1500 L/ha, once in yellowing stage or each once in flowering and yellowing stage, 2 weeks after cropping, FIG. 2) is given as “significantly smaller amount of the toxin”. In experiment [2] (application in the pre-cropping yellowing stage), the “accumulation of the toxin in wheat grains after cropping” value is recorded as “inhibited”. In experiment [3], the “DON accumulation level in barley grain at the time of cropping” value is given as 704 ppb. The “DON accumulation level in barley grain after storage for a half year” value in experiment [3] (room temperature storage for a half year after cropping) came out at 407 ppb. Besides, the “toxin (DON) amount per cell weight versus medium containing no metconazole” value in experiment [4] (PDA medium containing metconazole at 0.1 ppm) and in experiment [4] (PDA medium containing metconazole at 0.2 ppm) was “significantly smaller” throughout.
